{
  "source": "ChEMBL document CHEMBL5465560",
  "about": "“Selectivity Literature for EUbOPEN Chemogenomic Library” (2024)",
  "key": {"[1]": {"target": "Serine/threonine-protein kinase mTOR (Homo sapiens, UniProt P42345)", "experiment": "Selectivity interaction (KinomeScan (DiscoverX)) EUB0001049a MTOR", "settings": "at 1 µM"}, "[2]": {"target": "T1, Inhibitor of nuclear factor kappa-B kinase subunit epsilon (Homo sapiens) (UniProt Q14164)", "T1 sequence (whole entry)": "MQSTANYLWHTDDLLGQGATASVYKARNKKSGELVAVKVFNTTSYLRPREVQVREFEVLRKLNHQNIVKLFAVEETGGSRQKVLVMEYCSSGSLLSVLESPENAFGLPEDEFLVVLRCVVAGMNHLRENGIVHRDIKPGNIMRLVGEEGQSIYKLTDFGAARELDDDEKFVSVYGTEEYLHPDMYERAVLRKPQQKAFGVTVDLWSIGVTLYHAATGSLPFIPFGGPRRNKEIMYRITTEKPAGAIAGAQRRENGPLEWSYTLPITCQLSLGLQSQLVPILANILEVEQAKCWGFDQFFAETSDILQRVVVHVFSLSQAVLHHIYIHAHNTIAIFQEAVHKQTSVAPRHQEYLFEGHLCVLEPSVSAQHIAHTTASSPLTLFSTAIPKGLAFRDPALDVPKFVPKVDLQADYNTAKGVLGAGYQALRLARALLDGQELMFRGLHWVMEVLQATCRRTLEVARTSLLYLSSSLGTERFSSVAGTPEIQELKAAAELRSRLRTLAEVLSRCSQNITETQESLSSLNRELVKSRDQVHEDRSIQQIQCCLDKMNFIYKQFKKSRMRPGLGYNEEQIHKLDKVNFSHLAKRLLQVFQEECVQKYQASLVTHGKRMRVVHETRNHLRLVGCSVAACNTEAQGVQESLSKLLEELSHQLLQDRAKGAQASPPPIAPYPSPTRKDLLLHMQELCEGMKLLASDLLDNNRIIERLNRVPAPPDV", "experiment": "Selectivity interaction (KinomeScan (DiscoverX)) EUB0000666a IKBKE", "settings": "at 10 µM"}, "[3]": {"target": "Casein kinase I isoform gamma-2 (Homo sapiens) (UniProt P78368)", "sequence (P78368 whole entry, looked up, canonical isoform)": "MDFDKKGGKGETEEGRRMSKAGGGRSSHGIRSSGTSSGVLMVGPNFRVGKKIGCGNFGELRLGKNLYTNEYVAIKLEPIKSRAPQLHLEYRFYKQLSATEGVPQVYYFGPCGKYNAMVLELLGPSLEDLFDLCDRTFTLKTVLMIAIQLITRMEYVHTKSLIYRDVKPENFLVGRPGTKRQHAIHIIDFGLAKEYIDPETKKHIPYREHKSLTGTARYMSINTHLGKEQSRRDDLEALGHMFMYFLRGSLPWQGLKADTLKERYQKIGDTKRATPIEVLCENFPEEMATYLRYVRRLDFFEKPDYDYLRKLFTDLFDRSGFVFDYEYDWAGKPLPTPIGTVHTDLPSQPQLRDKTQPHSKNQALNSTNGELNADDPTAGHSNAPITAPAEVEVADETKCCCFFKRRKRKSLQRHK", "experiment": "Selectivity interaction (KinomeScan (DiscoverX)) EUB0000229b CSNK1G2", "settings": "at 10 µM"}, "[4]": {"experiment": "Selectivity interaction (Eurofins CEREP Diversity Profile (receptors and ion channels)) EUB0000279b NPY", "settings": "at 10 µM"}, "Mu-type opioid receptor": {"target": "Mu-type opioid receptor (Homo sapiens, UniProt P35372)", "sequence (P35372 whole entry)": "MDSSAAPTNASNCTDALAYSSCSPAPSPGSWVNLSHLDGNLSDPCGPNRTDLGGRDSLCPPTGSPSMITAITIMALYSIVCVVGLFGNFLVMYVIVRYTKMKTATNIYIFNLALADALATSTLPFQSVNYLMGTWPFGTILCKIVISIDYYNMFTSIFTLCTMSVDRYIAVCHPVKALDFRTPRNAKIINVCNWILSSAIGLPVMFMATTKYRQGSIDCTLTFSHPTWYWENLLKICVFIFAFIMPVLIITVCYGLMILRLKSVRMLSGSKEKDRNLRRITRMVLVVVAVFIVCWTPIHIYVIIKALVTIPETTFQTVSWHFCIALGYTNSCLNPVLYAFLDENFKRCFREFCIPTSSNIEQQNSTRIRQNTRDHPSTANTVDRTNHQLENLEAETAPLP", "experiment": "Selectivity interaction (GPCR panel (PDSP screen)) EUB0001079a OPRM1", "settings": "at 10 µM"}, "[5]": {"target": "T2, Aurora kinase A (Homo sapiens) (UniProt O14965)", "T2 sequence (whole entry)": "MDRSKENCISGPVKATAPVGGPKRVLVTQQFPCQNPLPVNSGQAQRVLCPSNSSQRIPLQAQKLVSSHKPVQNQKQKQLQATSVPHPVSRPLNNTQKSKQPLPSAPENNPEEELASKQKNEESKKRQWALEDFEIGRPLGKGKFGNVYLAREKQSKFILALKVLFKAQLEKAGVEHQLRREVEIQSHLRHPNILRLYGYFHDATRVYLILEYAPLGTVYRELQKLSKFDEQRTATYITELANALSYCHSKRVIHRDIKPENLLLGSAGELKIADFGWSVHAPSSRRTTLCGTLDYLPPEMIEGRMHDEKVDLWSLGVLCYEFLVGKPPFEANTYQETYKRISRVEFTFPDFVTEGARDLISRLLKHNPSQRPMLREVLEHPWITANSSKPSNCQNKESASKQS", "experiment": "Selectivity interaction (ActivX KiNativ screen (kinase selectivity in THP-1 cell lysates)) EUB0000639a STK6", "type": "subcellular", "settings": "lysate, at 1 µM"}, "[6]": {"target": "T3, Diacylglycerol kinase eta (Homo sapiens) (UniProt Q86XP1)", "T3 sequence (whole entry)": "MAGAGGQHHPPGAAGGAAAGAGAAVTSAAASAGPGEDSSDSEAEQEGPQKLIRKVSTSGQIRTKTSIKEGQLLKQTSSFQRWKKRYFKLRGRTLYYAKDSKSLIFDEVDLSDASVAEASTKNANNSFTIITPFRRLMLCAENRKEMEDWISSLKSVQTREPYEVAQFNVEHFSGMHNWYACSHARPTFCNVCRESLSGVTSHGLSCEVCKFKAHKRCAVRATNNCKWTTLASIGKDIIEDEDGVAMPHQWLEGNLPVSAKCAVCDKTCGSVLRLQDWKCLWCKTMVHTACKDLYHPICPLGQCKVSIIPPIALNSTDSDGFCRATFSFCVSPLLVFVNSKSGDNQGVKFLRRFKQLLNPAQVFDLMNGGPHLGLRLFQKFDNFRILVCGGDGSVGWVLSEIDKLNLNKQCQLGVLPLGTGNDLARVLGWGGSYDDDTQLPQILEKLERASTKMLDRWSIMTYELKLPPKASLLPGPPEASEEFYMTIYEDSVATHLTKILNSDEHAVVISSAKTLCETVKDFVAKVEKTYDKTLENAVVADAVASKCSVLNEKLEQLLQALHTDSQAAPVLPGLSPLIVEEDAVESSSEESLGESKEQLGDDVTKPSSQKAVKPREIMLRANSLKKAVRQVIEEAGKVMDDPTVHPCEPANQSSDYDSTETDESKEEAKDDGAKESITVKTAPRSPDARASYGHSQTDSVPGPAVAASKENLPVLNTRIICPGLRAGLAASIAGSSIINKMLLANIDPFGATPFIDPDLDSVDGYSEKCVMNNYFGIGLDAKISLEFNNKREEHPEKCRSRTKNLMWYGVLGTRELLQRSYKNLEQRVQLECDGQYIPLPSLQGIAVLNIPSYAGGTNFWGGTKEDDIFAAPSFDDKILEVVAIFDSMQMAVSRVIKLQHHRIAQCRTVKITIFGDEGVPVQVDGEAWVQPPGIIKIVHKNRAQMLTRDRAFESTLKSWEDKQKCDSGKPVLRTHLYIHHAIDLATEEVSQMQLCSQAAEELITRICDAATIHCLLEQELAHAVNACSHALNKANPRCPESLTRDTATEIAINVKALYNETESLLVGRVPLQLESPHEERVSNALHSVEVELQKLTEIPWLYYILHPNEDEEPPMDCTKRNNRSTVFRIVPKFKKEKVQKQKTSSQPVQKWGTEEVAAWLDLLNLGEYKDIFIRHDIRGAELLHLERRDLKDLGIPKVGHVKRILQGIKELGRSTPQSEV", "experiment": "Selectivity interaction (ActivX KiNativ screen (kinase selectivity in THP-1 cell lysates)) EUB0000639a DGKH", "type": "subcellular", "settings": "lysate"}, "[7]": {"target": "Serine/threonine-protein kinase PLK1 (Homo sapiens, UniProt P53350)", "sequence (P53350 whole entry)": "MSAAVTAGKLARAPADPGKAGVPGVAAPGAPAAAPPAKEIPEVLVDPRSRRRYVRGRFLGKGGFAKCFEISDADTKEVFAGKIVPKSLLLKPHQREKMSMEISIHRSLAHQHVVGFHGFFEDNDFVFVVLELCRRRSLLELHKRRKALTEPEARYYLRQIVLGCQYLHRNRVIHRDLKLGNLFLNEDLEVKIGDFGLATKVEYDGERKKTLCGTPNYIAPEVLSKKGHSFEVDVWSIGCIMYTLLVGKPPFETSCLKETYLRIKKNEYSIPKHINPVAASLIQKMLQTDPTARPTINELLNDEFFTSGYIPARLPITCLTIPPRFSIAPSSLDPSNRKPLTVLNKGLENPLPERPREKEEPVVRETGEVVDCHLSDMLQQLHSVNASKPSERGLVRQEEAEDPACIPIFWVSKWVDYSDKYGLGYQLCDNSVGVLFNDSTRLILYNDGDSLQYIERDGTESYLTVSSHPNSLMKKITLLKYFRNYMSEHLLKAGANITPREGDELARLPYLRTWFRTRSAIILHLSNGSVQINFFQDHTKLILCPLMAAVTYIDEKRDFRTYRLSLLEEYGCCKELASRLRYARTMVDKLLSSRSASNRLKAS", "experiment": "Selectivity interaction (ActivX KiNativ screen (kinase selectivity in THP-1 cell lysates)) EUB0000639a PLK1", "type": "subcellular", "settings": "lysate, at 0.2 µM"}, "[8]": {"target": "Serine/threonine-protein kinase PAK 1 (Homo sapiens) (UniProt Q13153)", "sequence (Q13153 whole entry)": "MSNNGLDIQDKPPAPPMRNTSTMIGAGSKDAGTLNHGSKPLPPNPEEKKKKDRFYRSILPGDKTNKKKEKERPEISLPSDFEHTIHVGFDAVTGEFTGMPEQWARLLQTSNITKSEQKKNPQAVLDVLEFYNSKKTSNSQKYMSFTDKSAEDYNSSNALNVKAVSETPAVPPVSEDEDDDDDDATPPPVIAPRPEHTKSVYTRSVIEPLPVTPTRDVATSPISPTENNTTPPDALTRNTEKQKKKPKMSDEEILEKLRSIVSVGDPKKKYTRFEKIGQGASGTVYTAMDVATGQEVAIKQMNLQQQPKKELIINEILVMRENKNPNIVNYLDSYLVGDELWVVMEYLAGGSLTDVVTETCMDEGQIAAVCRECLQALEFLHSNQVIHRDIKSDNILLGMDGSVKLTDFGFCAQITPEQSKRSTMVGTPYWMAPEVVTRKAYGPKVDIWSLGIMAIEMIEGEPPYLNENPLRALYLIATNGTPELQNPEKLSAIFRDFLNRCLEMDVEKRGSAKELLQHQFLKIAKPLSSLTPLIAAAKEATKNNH", "experiment": "Selectivity interaction (KinomeScan (DiscoverX)) EUB0000595a PAK1", "settings": "at 10 µM"}, "[9]": {"target": "Protein kinase C beta type (Homo sapiens, UniProt P05771)", "sequence (P05771 2-671 limits assumed)": "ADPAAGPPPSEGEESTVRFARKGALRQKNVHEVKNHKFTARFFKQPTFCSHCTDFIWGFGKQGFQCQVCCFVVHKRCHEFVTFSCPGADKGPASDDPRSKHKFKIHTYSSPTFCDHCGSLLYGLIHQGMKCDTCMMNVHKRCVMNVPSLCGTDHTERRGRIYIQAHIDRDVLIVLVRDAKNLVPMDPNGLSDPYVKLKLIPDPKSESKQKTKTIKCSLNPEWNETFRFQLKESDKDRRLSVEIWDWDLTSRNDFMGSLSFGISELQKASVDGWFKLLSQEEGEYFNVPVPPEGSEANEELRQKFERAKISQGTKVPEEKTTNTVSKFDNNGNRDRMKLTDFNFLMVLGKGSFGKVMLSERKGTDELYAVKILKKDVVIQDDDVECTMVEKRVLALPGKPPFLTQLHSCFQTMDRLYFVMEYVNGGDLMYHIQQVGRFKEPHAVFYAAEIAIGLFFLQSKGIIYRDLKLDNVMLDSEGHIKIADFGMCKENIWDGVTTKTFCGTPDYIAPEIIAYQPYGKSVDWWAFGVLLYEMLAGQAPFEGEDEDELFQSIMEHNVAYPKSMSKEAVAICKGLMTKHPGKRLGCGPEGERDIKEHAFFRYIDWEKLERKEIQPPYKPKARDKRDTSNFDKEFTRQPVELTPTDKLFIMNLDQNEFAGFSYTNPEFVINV", "experiment": "Selectivity interaction (Kinase screening (Nanosyn)) EUB0000604a PRKCB"}},
  "data": [
    {"smiles": "COc1cc(Nc2nc(C)cc(-c3cnn4nc(OC)ccc34)n2)cc(C(F)(F)F)c1", "values": [
      {"measurement": "% of control", "setting": "[1]", "value": 100, "unit": "%"}
    ]},
    {"smiles": "O=C(NOC[C@H](O)CO)c1ccc(F)c(F)c1Nc1ccc(I)cc1F", "values": [
      {"measurement": "% of control", "setting": "[2]", "value": 100, "unit": "%"}
    ]},
    {"smiles": "COc1cc(N(C)c2ccnc3ccc(C(F)(F)F)cc23)cc(OC)c1OC", "values": [
      {"measurement": "% binding", "setting": "[3]", "value": 96, "unit": "%"}
    ]},
    {"smiles": "CC(=O)c1cc(-c2ccccc2OCC2CC2)c2ncccn12", "values": [
      {"measurement": "% of control", "setting": "[4]", "value": 123, "unit": "%"}
    ]},
    {"smiles": "Nc1cnc(N2CCc3cc(S(=O)(=O)Nc4c(F)cc(Cl)cc4F)cc(N4CCCC4=O)c32)nc1", "note": "[TP-020n]", "values": [
      {"measurement": "% of inhibition", "setting": "Mu-type opioid receptor", "value": -1.31, "unit": "%"}
    ]},
    {"smiles": "CC[C@@H]1[C@H](F)C(=O)N[C@@H]1COc1nccc2cc(C(N)=O)c(OC)cc12", "note": "[ZIMLOVISERTIB]", "values": [
      {"measurement": "% of inhibition", "setting": "[5]", "value": 20, "unit": "%"},
      {"measurement": "% of inhibition", "setting": "[6]; at 0.01 µM", "value": 12.2, "unit": "%"},
      {"measurement": "% of inhibition", "setting": "[6]; at 0.04 µM", "value": 0, "unit": "%"},
      {"measurement": "% of inhibition", "setting": "[6]; at 0.2 µM", "value": 20, "unit": "%"},
      {"measurement": "% of inhibition", "setting": "[6]; at 1 µM", "value": 0.8, "unit": "%"},
      {"measurement": "% of inhibition", "setting": "[6]; at 5 µM", "value": -3.6, "unit": "%"},
      {"measurement": "% of inhibition", "setting": "[7]", "value": -0.2, "unit": "%"}
    ]},
    {"smiles": "COCC(=O)NC/C=C/c1ccc2ncnc(Nc3ccc(Oc4ccc(C)nc4)c(C)c3)c2c1", "note": "[CP-724714]", "values": [
      {"measurement": "% of control", "setting": "[8]", "value": 81, "unit": "%"}
    ]},
    {"smiles": "Cc1cnc(Nc2ccc(F)cc2Cl)nc1-c1c[nH]c(C(=O)N[C@H](CO)c2cccc(Cl)c2)c1", "values": [
      {"measurement": "% of inhibition", "setting": "[9]", "value": 4, "unit": "%"}
    ]}
  ]
}
